Measured values: patent US10160755B2 (Plexxikon Inc., priority 2015, dated 2018)

Target: c-Kit (Homo sapiens, UniProt P10721)
Experiment: c-Kit biochemical assay (per US 2007/0032519)
In short: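 Biochemical kinase inhibition run per US 2007/0032519; values reported as binned IC50 ranges (0.0001–1 μM, 1–10 μM, 10–200 μM).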

Sequence of c-Kit (P10721 26-976): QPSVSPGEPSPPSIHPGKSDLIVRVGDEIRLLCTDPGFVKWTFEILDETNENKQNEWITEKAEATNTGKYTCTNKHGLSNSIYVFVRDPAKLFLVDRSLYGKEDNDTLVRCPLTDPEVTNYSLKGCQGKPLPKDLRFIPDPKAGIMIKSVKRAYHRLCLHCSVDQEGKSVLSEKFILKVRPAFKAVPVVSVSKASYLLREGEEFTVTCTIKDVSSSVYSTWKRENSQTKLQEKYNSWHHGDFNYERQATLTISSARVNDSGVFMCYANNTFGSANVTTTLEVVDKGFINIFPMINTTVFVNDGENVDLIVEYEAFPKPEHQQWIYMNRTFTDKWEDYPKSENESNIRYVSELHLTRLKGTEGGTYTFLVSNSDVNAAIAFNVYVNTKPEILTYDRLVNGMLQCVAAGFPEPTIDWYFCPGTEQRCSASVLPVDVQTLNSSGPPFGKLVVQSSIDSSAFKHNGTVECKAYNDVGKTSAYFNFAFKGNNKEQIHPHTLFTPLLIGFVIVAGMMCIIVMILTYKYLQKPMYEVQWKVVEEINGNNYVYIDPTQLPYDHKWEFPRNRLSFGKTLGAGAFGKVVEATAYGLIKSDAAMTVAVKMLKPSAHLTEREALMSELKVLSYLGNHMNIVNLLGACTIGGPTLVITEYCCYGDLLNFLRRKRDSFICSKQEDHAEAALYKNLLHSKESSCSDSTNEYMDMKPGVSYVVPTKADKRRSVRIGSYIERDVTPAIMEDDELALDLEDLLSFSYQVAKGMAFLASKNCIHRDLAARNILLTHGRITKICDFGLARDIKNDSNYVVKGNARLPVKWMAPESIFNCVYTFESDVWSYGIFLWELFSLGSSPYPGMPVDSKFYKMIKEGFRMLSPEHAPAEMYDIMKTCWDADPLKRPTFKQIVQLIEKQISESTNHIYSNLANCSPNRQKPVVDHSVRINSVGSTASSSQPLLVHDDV

IC50 | Structure (SMILES)
10 to 200 µM | CC(C)(C)n1cnc2ccc(-c3c[nH]c4ncc(-c5cnc(F)c(F)c5)nc34)cc21 [P-390, 7-(3-tert-butylbenzimidazol-5-yl)-2-(5,6-difluoro-3-pyridyl)-5H-pyrrolo[2,3-b]pyrazine]
1 to 10 µM | CC(C)(C)n1cnc2ccc(-c3c[nH]c4ncc(-c5cnc(O)nc5)nc34)cc21 [P-363, 5-[7-(3-tert-butylbenzimidazol-5-yl)-5H-pyrrolo[2,3-b]pyrazin-2-yl]pyrimidin-2-ol]
1 to 10 µM | COc1cnc2[nH]cc(-c3ccc4ncn(C5CCC5)c4c3)c2c1 [P-061, 1-cyclobutyl-6-(5-methoxy-1H-pyrrolo[2,3-b]pyridin-3-yl)benzimidazole]
10 to 200 µM | CC(C)(C)n1cnc2ccc(-c3c[nH]c4ncc(-c5cnc(C#N)nc5)nc34)cc21 [P-352, 5-[7-(3-tert-butylbenzimidazol-5-yl)-5H-pyrrolo[2,3-b]pyrazin-2-yl]pyrimidine-2-carbonitrile]
0.0001 to 1 µM | Cc1ccc(-c2cnc3[nH]cc(-c4ccc5ncn(C(C)(C)C)c5c4)c3n2)cn1 [P-388, 7-(3-tert-butylbenzimidazol-5-yl)-2-(6-methyl-3-pyridyl)-5H-pyrrolo[2,3-b]pyrazine]
10 to 200 µM | COc1ncc(-c2cnc3[nH]cc(-c4ccc5ncn(C(C)(C)C)c5c4)c3n2)cc1C#N [P-405, 5-[7-(3-tert-butylbenzimidazol-5-yl)-5H-pyrrolo[2,3-b]pyrazin-2-yl]-2-methoxy-pyridine-3-carbonitrile]
10 to 200 µM | CC(C)(C)n1cnc2ccc(-c3c[nH]c4ncc(-c5ccnc(C#N)c5)nc34)cc21 [P-301, 4-[7-(3-tert-butylbenzimidazol-5-yl)-5H-pyrrolo[2,3-b]pyrazin-2-yl]pyridine-2-carbonitrile]
1 to 10 µM | COc1cnc2[nH]cc(-c3ccc4ncn(C(C)(C)C)c4c3)c2c1 [P-074, 1-tert-butyl-6-(5-methoxy-1H-pyrrolo[2,3-b]pyridin-3-yl)benzimidazole]
10 to 200 µM | COc1cnc2[nH]cc(-c3ccc4ncn(-c5ccccc5)c4c3)c2c1 [P-068, 5-methoxy-3-(3-phenylbenzimidazol-5-yl)-1H-pyrrolo[2,3-b]pyridine]
1 to 10 µM | CC(C)(O)c1ncc(-c2cnc3[nH]cc(-c4ccc5ncn(C(C)(C)C)c5c4)c3n2)cn1 [P-380, 2-[5-[7-(3-tert-butylbenzimidazol-5-yl)-5H-pyrrolo[2,3-b]pyrazin-2-yl]pyrimidin-2-yl]propan-2-ol]
